# Measured values from ChEMBL document CHEMBL1240307, “A functional genomics approach to the mode of action of apratoxin A” (Nat Chem Biol, 2006).
# Active and inactive are the calls of the source. The rule behind the calls is not given here.
# How the values were obtained:
# [1] = organism: Danio rerio; assay: Inhibition of FGFR-mediated mkp3 mRNA expression in Zebrafish dorsal forebrain at 40 uM by in situ hybridization analysis; format: tissue-based
# [2] = organism: Danio rerio; assay: Inhibition of FGFR-mediated distal pectoral fin development in Zebrafish embryo at 700 nM by in situ hybridization method at 48-60 hrs post fertilization stage
# [3] = organism: Danio rerio; assay: Inhibition of FGFR-mediated fin development in Zebrafish embryo at 40 uM by in situ hybridization method at 48-60 hrs post fertilization stage
# [4] = organism: Danio rerio; assay: Inhibition of FGFR-mediated mkp3 mRNA expression in Zebrafish embryo mid-hind brain boundary at 40 uM by in situ hybridization analysis
# [5] = organism: Danio rerio; assay: Inhibition of FGFR-mediated mkp3 mRNA expression in Zebrafish embryo tailbud region at 40 uM by in situ hybridization analysis
compound,measurement,setting,value
Cc1c[nH]c(/C=C2\C(=O)Nc3ccccc32)c1CCC(=O)O,inhibition,[1],Active
same,inhibition,[2],72%
same,inhibition,[3],76%
same,inhibition,[4],Active
same,inhibition,[5],Active
